Experimental data published in patent publication US6410533B1, “Antibacterial compounds” (Genzyme Corporation, priority 2000, dated 2002).
≈ marks a conversion by molar mass, not a printed value. Like-named read-outs stand apart in the source and are kept apart here.

Assays:
[1] = test system: Staphylococcus aureus bacteria (ATCC 9604 SV); assay: Minimal inhibitory concentration (MIC), broth microdilution; format: cell-based; conditions: 24 h at 37° C.
Protocol: Minimal inhibitory concentrations (MICs) for Staphylococcus aureus bacteria (ATCC 9604 SV) were determined by broth microdilution methodology following National Committee for Clinical Laboratory Standards. In the MIC determinations, the compounds were incorporated into Mueller-Hinton broth (Becton Dickinson Microbiology systems, Cockeyville, Md.) at a series of concentrations. After the test organism was grown overnight in TB broth, the broths were adjusted to the turbidity equivalent to 0.05 McFarland standard. The suspensions were diluted twenty-fold into the broth containing the compounds. […] In the IC50 determination, the method was modified to allow the rapid growth of the organisms. The inoculum suspensions were adjusted to 0.1 McFarland standard and then diluted two-fold into the wells containing TB broth and the compounds. After three to five hours incubation at 37° C., the turbidity was measured at 550 nm and inhibitory activity was defined as the concentration of antimicrobial agent that inhibits 50% growth of the organism in the microdilution wells.

[2] = test system: methicillin-resistant Staphylococcus aureus (ATCC 33591); assay: In vivo mouse intraperitoneal infection, mortality and % survivors over 7 days; conditions: 1 and 5 h post inoculation, MRSA ATCC 33591 i.p., ICR mice
Protocol: Ten male ICR mice weighing 20 grams were inoculated intraperitoneally with an LD90-100 dose (2-3×10^7 CFU/mouse) of methicillin-resistant Staphylococcus aureus (ATCC 33591) in brain-heart infusion broth containing 5% mucin. Compounds were suspended in a vehicle containing 1% cremophore EL (Sigma) in normal saline and were administered subcutaneously in a volume of 0.4 ml per mouse either 1 hour following bacterial inoculation or 1 and 5 hours post inoculation. Animals receiving two doses of drug were injected subcutaneously in the hindquarter one hour post-innoculation and in the neck area, 5 hours post-innoculation. Deaths occurring during the subsequent 7 days are recorded. Mortality and % survivor endpoints are calculated.

[3] = Staphylococcus aureus ATCC 9604 SV

Compound | MIC [1, 3] [µg/mL] | MIC ([1]; ATCC9604, Staphylococcus aureus ATCC 9604 SV, read-out: MIC) [µg/mL] | In Vivo, double dose (% of mice rescued) ([2]; 2 × 2 mg/kg s.c.) [% @ 2 × 2 mg/kg] | In Vivo, double dose (% of mice rescued) ([2]; 2 × 20 mg/kg s.c.) [% @ 2 × 20 mg/kg]
CC1=NN(c2cc(Cl)cc(Cl)c2)C(=O)C1Cc1ccccc1 (stereo not drawn) [Compound 21] | 8.33 (≈ 25 µM) | – | – | –
O=C1C2CCCCC2=NN1c1cc(Cl)cc(Cl)c1 (stereo not drawn) [Compound 18] | >7.08 | – | – | –
CC1=NN(c2cc(Cl)cc(Cl)c2)C(=O)C1 [Compound 5] | 6.08 (≈ 25 µM) | – | – | –
O=C1C(=Cc2ccncc2)C(c2ccccc2)=NN1c1cc(Cl)cc(Cl)c1 [Compound 19] | 1.15 (≈ 2.92 µM) | – | 0 | 25
CCC1=NN(c2cc(Cl)cc(Cl)c2)C(=O)C1=Cc1cccnc1 [Compound 54] | 0.750 (≈ 2.17 µM) | – | 0 | 12.5
CCC1=NN(c2cc(Cl)cc(Cl)c2)C(=O)C1=CC(=O)O [Compound 57] | 6.25 (≈ 20 µM) | – | 0 | 0
CC1(C)C(=O)N(c2cc(Cl)cc(Cl)c2)N=C1c1ccccc1 [Compound 4] | >8.33 | – | – | –
CC(C)(C)c1csc(NC(=O)NCc2cccc(Cl)c2)n1 [Compound 172] | 8.10 (≈ 25 µM) | – | 12.5 | 25
Cc1ccc(C2=NN(c3cc(Cl)cc(Cl)c3)C(=O)C2)cc1 [Compound 6] | >7.98 | – | – | –
O=C1CC(C(F)(F)F)=NN1c1cc(Cl)cc(Cl)c1 [Compound 14] | 3.56 (≈ 12 µM) | – | – | –
O=C1CC(C2CCCCC2)=NN1c1cc(Cl)cc(Cl)c1 [Compound 8] | >7.78 | – | – | –
O=C1CC(c2ccc(F)cc2)=NN1c1cc(Cl)cc(Cl)c1 [Compound 16] | 0.485 (≈ 1.5 µM) | – | 0 | 25
CCC1=NN(c2cc(Cl)cc(Cl)c2)C(=O)C1=Cc1ccco1 [Compound 55] | 1.50 (≈ 4.48 µM) | – | 0 | 25
O=C1C(=Cc2cccs2)C(c2ccccc2)=NN1c1cc(Cl)cc(Cl)c1 [Compound 36] | 12.5 (≈ 31.3 µM) | – | – | –
CC(C)=C1C(=O)N(c2cc(Cl)cc(Cl)c2)N=C1c1ccccc1 [Compound 22] | 0.518 (≈ 1.5 µM) | – | 0 | 25
O=C1CC(c2ccccc2F)=NN1c1cc(Cl)cc(Cl)c1 [Compound 7] | >8.08 | – | – | –
CC1=NN(c2cc(Cl)cc(Cl)c2)C(=O)C1C (stereo not drawn) [Compound 11] | >6.43 | – | – | –
O=C(O)c1ccccc1C=C1C(=O)N(c2cc(Cl)cc(Cl)c2)N=C1c1ccccc1 [Compound 24] | 1.35 (≈ 3.09 µM) | – | 0 | 0

Compound | MIC [1, 3] [µg/mL] | MIC ([1]; ATCC9604, Staphylococcus aureus ATCC 9604 SV, read-out: MIC) [µg/mL] | In Vivo, double dose (% of mice rescued) ([2]; 2 × 2 mg/kg s.c.) [% @ 2 × 2 mg/kg] | In Vivo, double dose (% of mice rescued) ([2]; 2 × 20 mg/kg s.c.) [% @ 2 × 20 mg/kg]
Cn1cccc1C=C1C(=O)N(c2cc(Cl)cc(Cl)c2)N=C1c1ccccc1 [Compound 32] | 0.320 (≈ 0.808 µM) | – | – | –
O=C1C(=Cc2ccsc2)C(c2ccccc2)=NN1c1cc(Cl)cc(Cl)c1 [Compound 33] | 5.00 (≈ 12.5 µM) | – | 25 | 0
O=C1C(=Cc2ccccn2)C(c2ccccc2)=NN1c1cc(Cl)cc(Cl)c1 [Compound 29] | 12.5 (≈ 31.7 µM) | – | – | –
CCCC1=NN(c2cc(Cl)cc(Cl)c2)C(=O)C1 [Compound 10] | 0.813 (≈ 3 µM) | – | 0 | 0
COc1ccc(C(=O)C2C(=O)N(c3cc(Cl)cc(Cl)c3)N=C2c2ccccc2)cc1 (stereo not drawn) [Compound 49] | 10.0 (≈ 22.8 µM) | – | 0 | 25
CCC1=NN(c2cc(Cl)cc(Cl)c2)C(=O)C1=Cc1ccc(C(=O)O)cc1 [Compound 59] | 0.400 (≈ 1.03 µM) | – | 12.5 | 12.5
CN(C)CCCOc1ccc(C=C2C(=O)N(c3cc(Cl)cc(Cl)c3)N=C2c2ccccc2)cc1 [Compound 28] | >12.5 | – | – | –
O=C1C(=Cc2ccoc2)C(c2ccccc2)=NN1c1cc(Cl)cc(Cl)c1 [Compound 34] | 2.40 (≈ 6.26 µM) | – | 25 | 25
O=C1C(=Cc2ccco2)C(c2ccccc2)=NN1c1cc(Cl)cc(Cl)c1 [Compound 35] | >12.5 | – | – | –
CC(=O)C=C1C(=O)N(c2cc(Cl)cc(Cl)c2)N=C1c1ccccc1 [Compound 25] | 3.12 (≈ 8.69 µM) | – | 0 | 0
O=C1CC(c2cccnc2)=NN1c1cc(Cl)cc(Cl)c1 [Compound 53] | 7.65 (≈ 25 µM) | – | – | –
O=C1C2CCCC2=NN1c1cc(Cl)cc(Cl)c1 (stereo not drawn) [Compound 12] | >6.73 | – | – | –
CN(C)C=C1C(=O)N(c2cc(Cl)cc(Cl)c2)N=C1c1ccccc1 [Compound 9, 2-(3,5-Dichloro-phenyl)-4-dimethylaminomethylene-5-phenyl-2,4-dihydro-pyrazol-3-one] | – | > 9.01 | – | –
CCN(CC)c1ccc(C=C2C(=O)N(c3cc(Cl)cc(Cl)c3)N=C2c2ccccc2)cc1 [Compound 27] | >12.5 | – | – | –
CC(C)C1=NN(c2cc(Cl)cc(Cl)c2)C(=O)C1 [Compound 13] | >6.78 | – | – | –
O=C1C(=Cc2nccs2)C(c2ccccc2)=NN1c1cc(Cl)cc(Cl)c1 [Compound 37] | 12.5 (≈ 31.2 µM) | – | – | –
CCC1C(=O)N(c2cc(Cl)cc(Cl)c2)N=C1C (stereo not drawn) [Compound 20] | >6.78 | – | – | –
O=C(C=C1C(=O)N(c2cc(Cl)cc(Cl)c2)N=C1c1ccccc1)c1ccccc1 [Compound 26] | >12.5 | – | – | –

Second part, led by results:

MIC [1, 3] [µg/mL] | MIC ([1]; ATCC9604, Staphylococcus aureus ATCC 9604 SV, read-out: MIC) [µg/mL] | Compound | In Vivo, double dose (% of mice rescued) ([2]; 2 × 2 mg/kg s.c.) [% @ 2 × 2 mg/kg] | In Vivo, double dose (% of mice rescued) ([2]; 2 × 20 mg/kg s.c.) [% @ 2 × 20 mg/kg]
11.5 (≈ 25.1 µM) | – | CCC1=NN(c2cc(Cl)cc(Cl)c2)C(=O)C1=Cc1cccc(C(=O)N2CCOCC2)c1 [Compound 69] | – | –
12.5 (≈ 27.7 µM) | – | COC(=O)c1ccccc1C=C1C(=O)N(c2cc(Cl)cc(Cl)c2)N=C1c1ccccc1 [Compound 44] | – | –
>7.65 | – | O=C1CC(c2ccccn2)=NN1c1cc(Cl)cc(Cl)c1 [Compound 48] | – | –
9.50 (≈ 25 µM) | – | O=C(NCc1cccc(Cl)c1)Nc1nc(-c2ccc(F)cc2F)cs1 [Compound 178] | – | –
5.16 (≈ 12.5 µM) | – | O=C(NCc1cccc(Cl)c1)Nc1nc(-c2ccc(Cl)cc2Cl)cs1 [Compound 177] | – | –
>10.0 | – | O=C1C(=Cc2c[nH]c3ccccc23)C(c2ccccc2)=NN1c1cc(Cl)cc(Cl)c1 [Compound 39] | – | –
5.15 (≈ 12.5 µM) | – | O=C(NCc1cccc(Cl)c1)Nc1nc(-c2ccc(C(F)(F)F)cc2)cs1 [Compound 176] | – | –
6.25 (≈ 17.5 µM) | – | CCOC(=O)C1=NN(c2cc(Cl)cc(Cl)c2)C(=O)C1=CC(=O)O [Compound 64] | – | –
6.25 (≈ 14.2 µM) | – | CSc1ccc(C=C2C(=O)N(c3cc(Cl)cc(Cl)c3)N=C2c2ccccc2)cc1 [Compound 38] | – | –
5.40 (≈ 12.5 µM) | – | CCC1=NN(c2cc(Cl)cc(Cl)c2)C(=O)C1=Cc1cccc(C(=O)NCCO)c1 [Compound 70] | – | –
12.5 (≈ 28.9 µM) | – | CCOC(=O)C1=NN(c2cc(Cl)cc(Cl)c2)C(=O)C1=Cc1ccc(C(=O)O)cc1 [Compound 63] | – | –
11.8 (≈ 25 µM) | – | CCC1=NN(c2cc(Cl)cc(Cl)c2)C(=O)C1=Cc1cccc(C(=O)N2CCN(C)CC2)c1 [Compound 68] | – | –
0.400 (≈ 0.896 µM) | – | Cn1cc(C=C2C(=O)N(c3cc(Cl)cc(Cl)c3)N=C2c2ccccc2)c2ccccc21 [Compound 43] | – | –
7.15 (≈ 25 µM) | – | CCC1=NN(c2cc(Cl)cc(Cl)c2)C(=O)C1=NO [Compound 60] | – | –
12.5 (≈ 28.1 µM) | – | CCOC(=O)C1=NN(c2cc(Cl)cc(Cl)c2)C(=O)C1=CC1C(=O)Nc2ccccc21 (stereo not drawn) [Compound 62] | – | –
2.33 (≈ 6.26 µM) | – | O=C1CC(c2ccccc2)=NN1c1cc(C(F)(F)F)cc(C(F)(F)F)c1 [Compound 47] | – | –
11.4 (≈ 24.9 µM) | – | O=C(NCc1ccc(Cl)c(Cl)c1)Nc1nc(-c2ccc(Br)cc2)cs1 [Compound 181] | – | –
3.76 (≈ 12.5 µM) | – | CCOC(=O)C1=NN(c2cc(Cl)cc(Cl)c2)C(=O)C1 [Compound 67] | – | –
12.5 (≈ 27.3 µM) | – | CCOC(=O)N1CCC(=C2C(=O)N(c3cc(Cl)cc(Cl)c3)N=C2c2ccccc2)CC1 [Compound 41] | – | –
8.53 (≈ 25 µM) | – | CCC1=NN(c2cc(Cl)cc(Cl)c2)C(=O)C1=CCCC(=O)O [Compound 61] | – | –
9.05 (≈ 25 µM) | – | O=C(NCc1cccc(Cl)c1)Nc1nc(-c2cccc(F)c2)cs1 [Compound 174] | – | –
9.40 (≈ 25 µM) | – | Cc1cc(-c2csc(NC(=O)NCc3cccc(Cl)c3)n2)ccc1F [Compound 180] | – | –
5.16 (≈ 12.5 µM) | – | O=C(NCc1cccc(Cl)c1)Nc1nc(-c2ccc(Cl)c(Cl)c2)cs1 [Compound 179] | – | –
